{
  "source": "the OPERA property sets (Mansouri et al. 2018)",
  "data": [
    {"details": "not given", "units": {"solubility": "µM"}, "values": [
      {"smiles": "CCCN(CCC)c1c([N+](=O)[O-])cc(C)cc1[N+](=O)[O-]", "solubility": 1080},
      {"smiles": "O=c1[nH]cc(Br)c(=O)[nH]1", "solubility": 4270},
      {"smiles": "CCOP(=O)(OCC)Oc1cc(C)[nH]n1", "solubility": 4270},
      {"smiles": "COCCNC(=O)CSP(=S)(OC)OC", "solubility": 73200},
      {"smiles": "O=C(NN=C1C=CC(=NO)C=C1)c1ccccc1", "solubility": 20.7},
      {"smiles": "C=C(C)C(=O)Nc1ccc(Cl)c(Cl)c1", "solubility": 36.9}
    ]},
    {"details": "20 °C", "units": {"solubility": "µM"}, "values": [
      {"smiles": "c1cc[n+]2c(c1)-c1cccc[n+]1CC2", "solubility": 376}
    ]},
    {"details": "21 °C", "units": {"solubility": "µM"}, "values": [
      {"smiles": "CNc1nc(NC(C)C)nc(OC)n1", "solubility": 17700}
    ]},
    {"details": "25 °C", "units": {"solubility": "µM"}, "values": [
      {"smiles": "CC(Cl)=CCl", "solubility": 24300},
      {"smiles": "C/C=C(/C)C(=O)O[C@H]1CC[C@@]2(C)[C@@H]3CC[C@H]4[C@]5(O)C[C@H](O)[C@@]6(O)[C@@H](CN7C[C@@H](C)CC[C@H]7[C@@]6(C)O)[C@]5(O)C[C@@]42O[C@]13O", "solubility": 963},
      {"smiles": "Cc1nn(-c2ccccc2)c(C)c1N=O", "solubility": 184},
      {"smiles": "CCOP(=O)(OC=CCl)OCC", "solubility": 46600}
    ]}
  ]
}
